Experiment: mn = molality of the nth substance listed, in mol/kg
Conditions: 101 kPa, Liquid; for mass density: Vibrating tube method; for speed of sound: OPTIME 1.0 from OPTEL

O=S(=O)([O-])C(F)(F)F.O=S(=O)([O-])C(F)(F)F.O=S(=O)([O-])C(F)(F)F.[Gd+3] [gadolinium (III) trifluoromethanesulfonate] + C[S+](C)[O-]
Conditions | mass density, 293.15 K [kg/m3] | mass density, 298.15 K [kg/m3] | mass density, 303.15 K [kg/m3] | mass density, 313.15 K [kg/m3] | mass density, 323.15 K [kg/m3] | mass density, 333.15 K [kg/m3] | speed of sound, 298.15 K [m/s]
m1 = 0.01963 | 1108.73 | 1103.71 | 1098.7 | 1088.67 | 1078.66 | 1068.64 | 1481.8
m1 = 0.02663 | 1111.79 | 1106.78 | 1101.77 | 1091.75 | 1081.75 | 1071.74 | 1481
m1 = 0.03818 | 1116.88 | 1111.88 | 1106.87 | 1096.87 | 1086.88 | 1076.89 | 1479.6
m1 = 0.04655 | 1120.6 | 1115.6 | 1110.6 | 1100.61 | 1090.63 | 1080.64 | 1478.6
m1 = 0.05549 | 1124.6 | 1119.6 | 1114.6 | 1104.62 | 1094.65 | 1084.68 | 1477.5
m1 = 0.06913 | 1130.74 | 1125.75 | 1120.76 | 1110.8 | 1100.84 | 1090.89 | 1475.9
m1 = 0.08877 | 1139.72 | 1134.74 | 1129.76 | 1119.82 | 1109.89 | 1099.96 | 1473.6
m1 = 0.1071 | 1148.2 | 1143.23 | 1138.26 | 1128.34 | 1118.43 | 1108.52 | 1471.5
m1 = 0.124 | 1156.16 | 1151.2 | 1146.24 | 1136.34 | 1126.45 | 1116.58 | 1469.4
m1 = 0.1457 | 1166.53 | 1161.57 | 1156.62 | 1146.75 | 1136.88 | 1127.04 | 1467
m1 = 0.1629 | 1174.88 | 1169.93 | 1165 | 1155.14 | 1145.31 | 1135.48 | 1465

O=S(=O)([O-])C(F)(F)F.O=S(=O)([O-])C(F)(F)F.O=S(=O)([O-])C(F)(F)F.[La+3] [lanthanum(III) trifluoromethanesulfonate] + C[S+](C)[O-]
Conditions | mass density, 293.15 K [kg/m3] | mass density, 298.15 K [kg/m3] | mass density, 303.15 K [kg/m3] | mass density, 313.15 K [kg/m3] | mass density, 323.15 K [kg/m3] | mass density, 333.15 K [kg/m3] | speed of sound, 298.15 K [m/s]
m1 = 0.01831 | 1107.63 | 1102.61 | 1097.59 | 1087.57 | 1077.55 | 1067.52 | 1482.3
m1 = 0.0248 | 1110.28 | 1105.26 | 1100.24 | 1090.22 | 1080.21 | 1070.19 | 1481.7
m1 = 0.03536 | 1114.62 | 1109.6 | 1104.59 | 1094.58 | 1084.58 | 1074.57 | 1480.7
m1 = 0.04296 | 1117.75 | 1112.74 | 1107.73 | 1097.73 | 1087.73 | 1077.74 | 1479.9
m1 = 0.05181 | 1121.43 | 1116.42 | 1111.41 | 1101.41 | 1091.43 | 1081.44 | 1479
m1 = 0.0646 | 1126.78 | 1121.77 | 1116.77 | 1106.78 | 1096.81 | 1086.84 | 1477.8
m1 = 0.08309 | 1134.62 | 1129.61 | 1124.62 | 1114.64 | 1104.68 | 1094.74 | 1476
m1 = 0.1003 | 1142 | 1136.99 | 1132 | 1122.04 | 1112.1 | 1102.16 | 1474.3
m1 = 0.1156 | 1148.66 | 1143.66 | 1138.68 | 1128.72 | 1118.8 | 1108.9 | 1472.9
m1 = 0.1362 | 1157.7 | 1152.71 | 1147.73 | 1137.79 | 1127.88 | 1117.99 | 1470.8
m1 = 0.1528 | 1165.12 | 1160.13 | 1155.15 | 1145.24 | 1135.35 | 1125.49 | 1469.3
